From patent US20050215548A1 (Cyclacel Limited, priority 2002, published 2005)
Read-outs that look alike come from different tables or passages of the source.

Legend:
Lovo = assay: 72-h MTT cytotoxicity assay, Lovo; assay type: cell-based; details: Homo sapiens, Colon adenocarcinoma, read-out: Anti-proliferative activity, 72-h MTT IC50
Protocol: (§1) Representative bisarylsulfonamide compounds were tested on a panel of transformed and non-transformed human cell lines, using a standard 72-h MTT cytotoxicity assay [Haselsberger K et al, ibid].

p53 = p53 reporter gene assay (U2OS-derived luciferase reporter cell line); details: for Fold induction of luciferase activity: compared to basal luciferase activity, 16-h time point, at concentration of maximal induction; for Concentration (test compound concentration at which the p53 induction was maximal): p53 reporter, U2OS-derived cell line
Saos-2 = assay: 72-h MTT cytotoxicity assay, Saos-2; assay type: cell-based; details: Homo sapiens, Saos-2, Osteosracoma, read-out: Anti-proliferative activity, 72-h MTT IC50
Protocol: as §1

SKUT-1 = assay: 72-h MTT cytotoxicity assay, SKUT-1; assay type: cell-based; details: Homo sapiens, SK-UT-1, 72 h; SKUT-1, Uterus leiomyosarcoma; read-out: Anti-proliferative activity, 72-h MTT IC50
Protocol: as §1

U2OS = assay: 72-h MTT cytotoxicity assay, U2OS; assay type: cell-based; details: Homo sapiens, Osteosracoma, read-out: Anti-proliferative activity, 72-h MTT IC50
Protocol: as §1

SJSA-1 = assay: 72-h MTT cytotoxicity assay, SJSA-1; assay type: cell-based; details: Homo sapiens
Protocol: (§2) The fluorescence polarisation competitive HDM2 binding assay described in Example 3 was used. Furthermore, the anti-proliferative potency of the compounds against three human tumour cell lines with different genetic make-up was also determined. […] The cell lines used were as follows: AGS, gastric adenocarcinoma, wild-type p53; H1299, large cell lung carcinoma, p53 null, low HDM2; SJSA-1, primitive multipotential bone sarcoma, wild-type p53, overexpressed HDM2.
as §1

HeLa = assay: 72-h MTT cytotoxicity assay, HeLa; assay type: cell-based; details: Homo sapiens, Cervical carcinoma, read-out: Anti-proliferative activity, 72-h MTT IC50
Protocol: as §1

NaCat = assay: 72-h MTT cytotoxicity assay, NaCat; assay type: cell-based; details: Keratinocyte, Human keratinocytes, read-out: Anti-proliferative activity, 72-h MTT IC50
Protocol: as §1

AGS = assay: 72-h MTT cytotoxicity assay, AGS; assay type: cell-based; details: Homo sapiens
Outline: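 Anti-proliferative activity was measured by standard 72-h MTT assay. AGS is gastric adenocarcinoma with wild-type p53; H1299 is p53-null large cell lung carcinoma with low HDM2; SJSA-1 is bone sarcoma with wild-type p53 and overexpressed HDM2.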

A549 = assay: 72-h MTT cytotoxicity assay, A549; assay type: cell-based; details: Homo sapiens, A549, Lung carcinoma, read-out: Anti-proliferative activity, 72-h MTT IC50
Protocol: as §1

Nci-H460 = assay: 72-h MTT cytotoxicity assay, Nci-H460; assay type: cell-based; details: Homo sapiens, Nci-H460, Large cell lung carcinoma, read-out: Anti-proliferative activity, 72-h MTT IC50
Protocol: as §1

IMR90 = assay: 72-h MTT cytotoxicity assay, IMR90; assay type: cell-based; details: Homo sapiens, IMR-90, 72 h; IMR90, Lung fibroblasts; read-out: Anti-proliferative activity, 72-h MTT IC50
Protocol: as §1

Messa = assay: 72-h MTT cytotoxicity assay, Messa; assay type: cell-based; details: Homo sapiens, MES-SA, Uterus sarcoma, read-out: Anti-proliferative activity, 72-h MTT IC50
Protocol: as §1

SK-N-MC = assay: 72-h MTT cytotoxicity assay, SK-N-MC; assay type: cell-based; details: Homo sapiens, Neuriepithelioma, read-out: Anti-proliferative activity, 72-h MTT IC50
Protocol: as §1

H1299 = assay: 72-h MTT cytotoxicity assay, H1299; assay type: cell-based; details: Homo sapiens
Protocol: as §2, §1

[1] = tested on: non-transformed human cell lines; assay: 72-h MTT panel, average non-transformed; assay type: cell-based; details: average over non-transformed cell lines, read-out: Anti-proliferative activity, 72-h MTT IC50, Average non-transformed
Protocol: as §1
(§3) This differential selectivity further supports the notion that the bisarylsulfonamides modulate cellular HDM2 function. It is known that HDM2 amplification is particularly common in soft tissue sarcomas and osteosarcomas [Momand J et al, ibid; Bartel F, Meye A, Wurl P, Kappler M, Bache M, Lautenschlager C, Grunbaum U, Schmidt H, Taubert H; Int. J. Cancer 2001; 95: 168-175].

sarcoma cell lines = assay: 72-h MTT panel, average sarcomas; assay type: cell-based; details: Homo sapiens, average over sarcoma cell lines, read-out: Anti-proliferative activity, 72-h MTT IC50, Average sarcomas
Protocol: as §1, §3

WI38 = assay: 72-h MTT cytotoxicity assay, WI38; assay type: cell-based; details: Homo sapiens, WI-38, 72 h; WI38, Lung fibroblasts; read-out: Anti-proliferative activity, 72-h MTT IC50
Protocol: as §1

HDM2 = target: T1, HDM2 (Homo sapiens, UniProt Q00987); assay: Fluorescence polarisation competitive HDM2 binding assay
T1 construct: Recombinant HDM2 (1.5 μg per well) in TBS-BSA buffer
Outline: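 Recombinant HDM2 (1.5 μg/well) was preincubated 5 min at room temperature with serially diluted compound in 50 mM Tris pH 7.4, 150 mM NaCl, 0.1% BSA, 5% DMSO final. Fluorescein-labelled p53 peptide (0.2 μM) was then added for 45 min. Polarisation was read at 485/520 nm and IC50 derived from dose-response curves.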

Messa-Dx5 = assay: 72-h MTT cytotoxicity assay, Messa-Dx5; assay type: cell-based; details: Homo sapiens, MES-SA/Dx5, 72 h; Messa-Dx5, Uterus sarcoma; read-out: Anti-proliferative activity, 72-h MTT IC50
Protocol: as §1

carcinoma cell lines = assay: 72-h MTT panel, average carcinomas; assay type: cell-based; details: Homo sapiens, average over carcinoma cell lines, read-out: Anti-proliferative activity, 72-h MTT IC50, Average carcinomas
Protocol: as §1, §3

DU145 = assay: 72-h MTT cytotoxicity assay, DU145; assay type: cell-based; details: Homo sapiens, DU-145, 72 h; DU145, Prostate carcinoma; read-out: Anti-proliferative activity, 72-h MTT IC50
Protocol: as §1

HS27 = assay: 72-h MTT cytotoxicity assay, HS27; assay type: cell-based; details: Homo sapiens, HS27, Foreskin fibroblasts, read-out: Anti-proliferative activity, 72-h MTT IC50
Protocol: as §1

[2] = tested on: transformed human cell lines; assay: 72-h MTT panel, average transformed; assay type: cell-based; details: average over transformed cell lines, read-out: Anti-proliferative activity, 72-h MTT IC50, Average transformed
Protocol: as §1, §3

MCF7 = assay: 72-h MTT cytotoxicity assay, MCF7; assay type: cell-based; details: Homo sapiens, MCF7, Breast adenocarcinoma, read-out: Anti-proliferative activity, 72-h MTT IC50
Protocol: as §1

HT29 = assay: 72-h MTT cytotoxicity assay, HT29; assay type: cell-based; details: Homo sapiens, HT-29, 72 h; HT29, Colon adenocarcinoma; read-out: Anti-proliferative activity, 72-h MTT IC50
Protocol: as §1

HCT116 = assay: 72-h MTT cytotoxicity assay, HCT116; assay type: cell-based; details: Homo sapiens, HCT-116, 72 h; HCT116, Colon carcinoma; read-out: Anti-proliferative activity, 72-h MTT IC50
Protocol: as §1

[3] = tested on: E2F transcription factors; assay: E2F reporter gene assay (A549-derived luciferase reporter cell line); assay type: cell-based; details: Homo sapiens; after 3-h treatment with test compounds; read-out: IC50 E2F reporter, Non-synchronised cells
Protocol: A similar system to the p53 reporter assay described above was used, with the exception that it was designed to be responsive to E2F transcription factors rather than p53. An A549-derived cell line stably transfected with an E2F response element and a luciferase reporter gene was created. The genetic expression cassette construct used was from Clontech (Mercury™ Cell Cycle Profiling System). Assays were carried out as described above.
Representative bisarylsulfonamides were tested in the E2F gene reporter assay described in Example 6.

[4] = tested on: AGS, H1299, MCF7 or SJSA1 cells; assay: Cell morphology (cell rounding); assay type: cell-based, human; details: five times IC50
From the text: Equal amounts of cell lysate were separated by SDS-PAGE and analysed by immunoblotting using the indicated antibodies. An estimation of the extent of cell rounding is indicated above each lane. The arrow indicates the position of a 85-kDa cleavage product of PARP, indicative of apoptosis. (B) The effect of compound 2 on the levels of the cell cycle proteins in AGS cells (wild-type 53). […] Equal amounts of cell lysate were separated by SDS-PAGE and analysed by immunoblotting using the indicated antibodies. An estimation of the extent of cell rounding is indicated above each lane. (C) The effect of negative control compound (refer Example 10), compound 2, cisplatin, and anisomycin on the levels of key proteins in MCF7 cells. […] Cisplatinum and anisomycin (a transcription inhibitor) treatments were with 50 μM or 37 μM, respectively. Cells were harvested at various time points; afterwards lysates were prepared and separated by SDS-PAGE and analysed by immunoblotting. The proteins detected are indicated. The extent of rounded or floating cells and the percentage viable cells were assessed. […] Equal amounts of cell lysate were separated by SDS-PAGE and analysed by immunoblotting using a range of antibodies. An estimation of the extent of cell rounding is indicated above each lane. […] SJSA1 cells were treated with 5 times [IC50] of compound 2 and collected at the indicated time points. Equal amounts of cell lysate were separated by SDS-PAGE and analysed by immunoblotting using a range of antibodies. An estimation of the extent of cell rounding is indicated above each lane.
Cells were treated with 5 times [IC50] of compound 2 and collected at various time points. The percentage of rounded cells was counted before cells were trypsinised and counted for cell viability using trypan blue.
Cells were lysed and equal amounts were analysed by SDS-polyacrylamide gel electrophoresis (SDS-PAGE) and immunoblotting. […] The reduction in E2F-1 levels correlated with reduction in E2F transcriptional activity as determined by an E2F-dependent luciferase reporter assay (refer Example 6).

[5] = 72-h MTT, Table 1, read-out: IC50 Anti-proliferative effect on cell line AGS
[6] = NCI-H1299, 72-h MTT, Table 1, read-out: IC50 Anti-proliferative effect on cell line H 1299
[7] = fluorescence polarisation assay, Table 3, read-out: In vitro competitive HDM2 binding assay IC50
[8] = fluorescence polarisation format, Table 1, read-out: IC50 In vitro competitive HDM2 binding assay

T1 sequence (Q00987 whole entry): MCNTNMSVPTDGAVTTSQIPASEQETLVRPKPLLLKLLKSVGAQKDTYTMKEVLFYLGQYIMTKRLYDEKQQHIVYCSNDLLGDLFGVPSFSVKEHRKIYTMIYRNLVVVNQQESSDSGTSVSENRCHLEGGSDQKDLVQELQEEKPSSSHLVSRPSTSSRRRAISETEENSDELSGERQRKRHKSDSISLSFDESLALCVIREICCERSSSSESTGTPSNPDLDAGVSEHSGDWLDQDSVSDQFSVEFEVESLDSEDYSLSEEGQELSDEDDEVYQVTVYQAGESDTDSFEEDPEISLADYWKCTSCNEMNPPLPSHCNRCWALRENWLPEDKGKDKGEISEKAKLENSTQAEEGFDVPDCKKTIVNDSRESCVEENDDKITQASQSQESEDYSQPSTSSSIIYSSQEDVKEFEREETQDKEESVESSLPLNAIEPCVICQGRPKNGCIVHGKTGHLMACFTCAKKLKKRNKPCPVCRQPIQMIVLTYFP

Q: For CN(c1ccc(F)cc1)S(=O)(=O)c1cc([N+](=O)[O-])c(Cl)s1 [Compound 7], which IC50 (Lovo) is on record?
A: The IC50 was 8.5 µM.

Q: And the “Fold induction of luciferase activity” value (p53)?
A: Its value is 32 fold.

Q: And the “Concentration (test compound concentration at which the p53 induction was maximal)” value (p53)?
A: Its value is 9 µM.

Q: And the IC50 (Saos-2)?
A: Its IC50 is 13.3 µM.

Q: What about the IC50 (SKUT-1) of the same molecule?
A: Its IC50 is 6.1 µM.

Q: What about the IC50 (U2OS) of the same molecule?
A: The IC50 was 8.8 µM.

Q: And the IC50 (SJSA-1; 72 h, SJSA-1, Osteosracoma, Table 2, read-out: Anti-proliferative activity, 72-h MTT IC50)?
A: The IC50 was 17 µM.

Q: What about the IC50 (SJSA-1; SJSA-1, 72-h MTT, Table 1, read-out: IC50 Anti-proliferative effect on cell line SJSA-4) of the same molecule?
A: The IC50 was 9.3 ± 2.7 µM.

Q: What about the IC50 (HeLa) of the same molecule?
A: The IC50 was 13.7 µM.

Q: What about the IC50 (NaCat) of the same molecule?
A: Its IC50 is 12.9 µM.

Q: And the IC50 (AGS; [5])?
A: Its IC50 is 7 ± 1.3 µM.

Q: What about the IC50 (AGS; 72 h, Gastric adenocarcinoma, Table 2, read-out: Anti-proliferative activity, 72-h MTT IC50) of the same molecule?
A: Its IC50 is 5 µM.

Q: And the IC50 (A549)?
A: The IC50 was 19.3 µM.

Q: What about the IC50 (Nci-H460) of the same molecule?
A: Its IC50 is 9.6 µM.

Q: What about the IC50 (IMR90) of the same molecule?
A: The IC50 was 41.8 µM.

Q: What about the IC50 (Messa) of the same molecule?
A: The IC50 was 8.1 µM.

Q: And the IC50 (SK-N-MC)?
A: Its IC50 is 3000 nM.

Q: What about the IC50 (H1299; NCI-H1299, 72 h, H1299, Large cell lung carcinoma, Table 2, read-out: Anti-proliferative activity, 72-h MTT IC50) of the same molecule?
A: Its IC50 is 14 µM.

Q: And the IC50 (H1299; [6])?
A: The IC50 was 12.9 ± 0.7 µM.

Q: And the IC50 [1]?
A: Its IC50 is 44.6 ± 6.9 µM.

Q: What about the IC50 (sarcoma cell lines) of the same molecule?
A: The IC50 was 11.3 ± 3.7 µM.

Q: And the IC50 (WI38)?
A: The IC50 was 52.3 µM.

Q: What about the IC50 (HDM2; [7]) of the same molecule?
A: Its IC50 is 15.4 ± 7.8 µM.

Q: And the IC50 (HDM2; [8])?
A: The IC50 was 15.4 ± 7.8 µM.

Q: And the IC50 (Messa-Dx5)?
A: The IC50 was 7.6 µM.

Q: And the IC50 (carcinoma cell lines)?
A: Its IC50 is 9.7 ± 4.7 µM.

Q: And the IC50 (DU145)?
A: Its IC50 is 9.1 µM.

Q: And the IC50 (HS27)?
A: Its IC50 is 39.2 µM.

Q: What about the IC50 [2] of the same molecule?
A: Its IC50 is 10.2 ± 4.4 µM.

Q: What about the IC50 (MCF7) of the same molecule?
A: The IC50 was 11.2 µM.

Q: What about the IC50 (HT29) of the same molecule?
A: The IC50 was 4.6 µM.

Q: And the IC50 (HCT116)?
A: The IC50 was 12.2 µM.

Q: What does the source list for CC(Cc1c[nH]c2ccccc12)NS(=O)(=O)c1cc([N+](=O)[O-])c(Cl)s1 (centres unmarked) [Compound 49, 5-Chloro-4-nitrothiophene-2-sulfonic acid [2-(1H-indol-3-yl)-1-methylethyl]amide]?
A: Fold induction of luciferase activity (p53): 117 fold; Concentration (test compound concentration at which the p53 induction was maximal) (p53): 5.5 µM; IC50 (SJSA-1; SJSA-1, 72-h MTT, Table 1, read-out: IC50 Anti-proliferative effect on cell line SJSA-1): 2 ± 0.2 µM; IC50 (AGS; [5]): 2.2 ± 2.3 µM; IC50 (H1299; [6]): 1.5 ± 0.4 µM; IC50 [3]: 36.3 ± 2.9 µM; IC50 (HDM2; [7]): 46.3 ± 4 µM; IC50 (HDM2; [8]): 46.3 ± 4 µM; cell rounding [4]: even more rapid cell rounding
